These are literature values, as cited in publication PMC4104431 (Nuclear medicine and biology, 2014).

The target in one data set is CXCR4 (Homo sapiens, UniProt P61073).

SMILES strings stand for the structures.

CXCR4, sequence (P61073 whole entry): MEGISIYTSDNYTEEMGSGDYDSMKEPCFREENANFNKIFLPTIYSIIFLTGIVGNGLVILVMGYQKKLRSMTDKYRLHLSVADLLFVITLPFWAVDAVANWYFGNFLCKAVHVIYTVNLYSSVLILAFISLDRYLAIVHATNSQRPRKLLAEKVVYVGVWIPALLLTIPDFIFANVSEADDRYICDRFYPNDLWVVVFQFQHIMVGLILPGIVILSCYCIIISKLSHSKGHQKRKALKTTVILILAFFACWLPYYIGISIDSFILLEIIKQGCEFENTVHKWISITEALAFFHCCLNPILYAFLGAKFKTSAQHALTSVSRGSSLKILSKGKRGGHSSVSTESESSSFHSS

As to `c1ccc(CNCc2ccc(CN3CCCNCCNCCCNCC3)cc2)nc1` [AMD3465], the Metabolic stability entry is recorded as “metabolically stable”.

As for `c1cc(CN2CCCNCCNCCCNCC2)ccc1CN1CCCNCCNCCCNCC1` [AMD3100], the Metabolic stability result is “metabolically stable”. Besides, the “Fold increase in affinity for CXCR4 when bound to Cu(II)” value at CXCR4 is 7 fold.
